Experimental data published in patent publication US8513232B2, “Substituted spirocyclic piperidine derivatives as histamine-3 (H3) receptor ligands” (Cephalon, Inc., priority 2008, dated 2013).
Where two headings read alike, the source gives them in different places.

What was measured:
human H3 receptor = molecular target: T1, human H3 receptor (Homo sapiens, UniProt Q9Y5N1); assay: Human H3 radioligand binding ([3H]-N-alpha-methylhistamine, SPA)
T1 construct: expressed in transfected cells
Method in brief: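 SPA competition binding on membranes from CHO cells stably expressing human H3 receptor (10 μg protein/well) with ~1 nM [3H]-N-alpha-methylhistamine and compound at 0.01 nM-30 μM. Incubation 4 h at room temperature in 50 mM Tris-HCl pH 7.4, 5 mM MgCl2, 0.1% BSA; non-specific binding defined with 10 μM clobenpropit.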

[1] = molecular target: T2, rat histamine H3 receptor (Rattus norvegicus, UniProt Q9QYN8); assay: Rat H3 radioligand binding ([3H]-N-alpha-methylhistamine, SPA)
T2 construct: encoding the entire 445-amino-acid rat histamine H3 receptor; expressed in transfected cells; membrane preparation
Method in brief: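 Membranes from CHO-A3 cells stably expressing full-length rat H3 receptor (10 μg protein/well) incubated 4 h at room temperature, protected from light, with ~1 nM [3H]-N-alpha-methylhistamine and compound (0.01 nM-30 μM) in 50 mM Tris HCl pH 7.4, 5 mM MgCl2, 0.1% BSA. Binding read by SPA; 10 μM clobenpropit defined non-specific binding.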

[2] = Table C, human H3 binding, read-out: Human H3 Ki
[3] = Table C, rat H3 binding, read-out: Rat H3 Ki
[4] = human H3 binding, Table D, read-out: Human H3 Ki
[5] = rat H3 binding, Table D, read-out: Rat H3 Ki
[6] = Table A, human H3 binding, read-out: Human Ki
[7] = Table A, rat H3 binding, read-out: Rat Ki
[8] = Human H3 binding, Table B, Examples 136-362, read-out: hum H3 binding Ki
[9] = Rat H3 binding, Table B, Examples 136-362, read-out: rat H3 binding Ki

T1 sequence (Q9Y5N1 whole entry): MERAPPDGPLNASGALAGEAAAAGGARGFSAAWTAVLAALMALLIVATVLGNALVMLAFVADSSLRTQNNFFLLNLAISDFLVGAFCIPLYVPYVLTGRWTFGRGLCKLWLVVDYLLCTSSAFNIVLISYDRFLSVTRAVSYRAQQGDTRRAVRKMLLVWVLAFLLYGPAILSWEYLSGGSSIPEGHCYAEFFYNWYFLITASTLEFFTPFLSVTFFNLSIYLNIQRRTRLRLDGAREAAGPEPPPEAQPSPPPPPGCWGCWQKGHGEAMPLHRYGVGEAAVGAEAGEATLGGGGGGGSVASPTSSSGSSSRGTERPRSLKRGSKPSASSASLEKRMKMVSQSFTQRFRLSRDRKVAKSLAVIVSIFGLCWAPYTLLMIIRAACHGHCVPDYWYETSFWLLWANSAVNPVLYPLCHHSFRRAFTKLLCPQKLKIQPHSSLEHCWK
T2 sequence (Q9QYN8 whole entry): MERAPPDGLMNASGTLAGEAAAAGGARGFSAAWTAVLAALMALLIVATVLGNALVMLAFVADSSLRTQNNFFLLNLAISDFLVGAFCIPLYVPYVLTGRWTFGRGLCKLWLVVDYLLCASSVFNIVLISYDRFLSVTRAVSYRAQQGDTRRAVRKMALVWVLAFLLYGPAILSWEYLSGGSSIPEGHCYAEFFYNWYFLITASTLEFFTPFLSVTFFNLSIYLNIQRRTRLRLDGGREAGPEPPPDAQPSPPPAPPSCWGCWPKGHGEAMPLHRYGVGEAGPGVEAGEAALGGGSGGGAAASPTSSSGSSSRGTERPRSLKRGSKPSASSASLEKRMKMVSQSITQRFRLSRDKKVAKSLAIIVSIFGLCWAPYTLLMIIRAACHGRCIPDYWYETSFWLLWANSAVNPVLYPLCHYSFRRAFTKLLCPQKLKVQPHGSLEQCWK

Row | SMILES | melting point [°C] | Ki (human H3 receptor; [4]) [nM] | Ki [1, 5] [nM] | also measured
1 | COCCNC(=O)c1ccc(Oc2ccc3c(c2)CCC2(CCN(C4CCC4)CC2)O3)nc1 [Example 416] | 235 to 237 | – | – | Ki (human H3 receptor; [2]): < 200 nM; Ki [1, 3]: < 200 nM
2 | OC(c1ccc2c(c1)COC1(CCN(C3CCC3)CC1)O2)c1cncs1 (stereo not drawn) [Example 669] | 72 to 75 | < 200 | < 200 | –
3 | Cn1cc2c(n1)CCC(c1ccc3c(c1)COC1(CCN(C4CCC4)CC1)O3)=C2 [Example 459] | 149 to 150 | – | – | Ki (human H3 receptor; read-out: Human H3 Ki): < 200 nM; Ki ([1]; read-out: Rat H3 kI): < 200 nM
4 | O=C(c1ccc(-c2ccc3c(c2)COC2(CCN(C4CCC4)CC2)O3)cc1)N1CCCCC1 [Example 27] | 59 to 62 | – | – | Ki (human H3 receptor; [6]): < 200 nM; Ki [1, 7]: < 200 nM
5 | CCOC(=O)c1ccc(-c2ccc3c(c2)COC2(CCN(C4CCC4)CC2)O3)cc1 [Example 28] | 148 to 149 | – | – | Ki (human H3 receptor; [6]): < 200 nM; Ki [1, 7]: < 200 nM
6 | Clc1ccc(-c2ccc3c(c2)CCC2(CCN(C4CCC4)CC2)O3)cn1 [Example 371] | 168 to 169 | – | – | Ki (human H3 receptor; [2]): < 200 nM; Ki [1, 3]: < 200 nM
7 | COc1ccc(-c2ccc3c(c2)COC2(CCN(C4CC(CO)C4)CC2)O3)cn1 (stereo not drawn) [Example 717] | 123 to 125 | 200 to 1000 | 200 to 1000 | –
8 | CCNC(=O)C1CCC(O)(c2ccc3c(c2)COC2(CCN(C4CCC4)CC2)O3)CC1 (stereo not drawn) [Example 514] | 195 to 196 | – | – | Ki (human H3 receptor; read-out: Human H3 Ki): < 200 nM; Ki ([1]; read-out: Rat H3 kI): < 200 nM
9 | COC[C@H](C)NC(=O)c1ccc(-c2ccc3c(c2)CCC2(CCN(C4CCC4)CC2)O3)cc1Cl [Example 591] | 120 to 122 | < 200 | < 200 | –
10 | COc1ccc(Cc2ccc3c(c2)COC2(CCN(C4CCC4)CC2)O3)cn1 [Example 516] | 229 to 231 | – | – | Ki (human H3 receptor; read-out: Human H3 Ki): < 200 nM; Ki ([1]; read-out: Rat H3 kI): < 200 nM
11 | O=S1(=O)CCC(Oc2ccc3c(c2)CCC2(CCN(C4CCC4)CC2)O3)C1 (stereo not drawn) [Example 490] | 252 to 254 | – | – | Ki (human H3 receptor; read-out: Human H3 Ki): < 200 nM; Ki ([1]; read-out: Rat H3 kI): < 200 nM
12 | CNC(=O)c1cccc(-c2ccc3c(c2)CCOC2(CCN(C4CCC4)CC2)O3)c1 [Example 177] | 100.2 to 102.5 | – | – | Ki (human H3 receptor; [8]): 200 to 1000 nM; Ki [1, 9]: > 1000 nM
13 | c1ccc(Nc2ccc3c(c2)COC2(CCN(C4CCC4)CC2)O3)nc1 [Example 126] | 159 to 161 | – | – | Ki (human H3 receptor; [6]): < 200 nM; Ki [1, 7]: < 200 nM
14 | COC(=O)c1ccc(N2CCN(c3ccc4c(c3)CCC3(CCN(C5CCC5)CC3)O4)CC2)nc1 [Example 385] | 202 to 203 | – | – | Ki (human H3 receptor; [2]): < 200 nM; Ki [1, 3]: < 200 nM
15 | COCCNC(=O)C1CCCN(c2ccc3c(c2)COC2(CCN(C4CCC4)CC2)O3)C1 (stereo not drawn) [Example 613] | 55.4 to 57.3 | < 200 | < 200 | –
16 | O=c1[nH]cc(-c2ccc3c(c2)COC2(CCN(C4CCC4)CC2)O3)cc1CO [Example 773] | 228 to 230 | < 200 | < 200 | –
17 | O=C(c1ccc(-c2ccc3c(c2)COC2(CCN(C4CCC4)CC2)O3)cc1)N1CC[C@H](O)C1 [Example 148] | 178 to 181 | – | – | Ki (human H3 receptor; [8]): < 200 nM; Ki [1, 9]: < 200 nM
18 | CN(C)C(=O)/C=C/c1ccc2c(c1)CCC1(CCN(C3CCC3)CC1)O2 [Example 594] | 187 to 189 | < 200 | 200 to 1000 | –
19 | CNC(=O)N1CCN(c2ccc3c(c2)COC2(CCN(C4CCC4)CC2)O3)C(=O)C1 [Example 137] | 145 to 149 | – | – | Ki (human H3 receptor; [8]): < 200 nM; Ki [1, 9]: 200 to 1000 nM
20 | CC(=O)NC1CCN(c2ccc3c(c2)COC2(CCN(C4CCC4)CC2)O3)CC1 [Example 328] | 190.8 to 192 | – | – | Ki (human H3 receptor; [8]): < 200 nM; Ki [1, 9]: < 200 nM
21 | c1cc(Nc2ccc3c(c2)COC2(CCN(C4CCC4)CC2)O3)ncn1 [Example 129] | 170 to 171 | – | – | Ki (human H3 receptor; [6]): < 200 nM; Ki [1, 7]: < 200 nM
22 | O=C(NC[C@H]1CCCO1)c1ccc(-c2ccc3c(c2)COC2(CCN(C4CCC4)CC2)O3)cc1Cl [Example 579] | 155 to 157 | < 200 | < 200 | –
23 | O=c1ccc(-c2ccc3c(c2)COC2(CCN(C4CCOC4)CC2)O3)c[nH]1 (stereo not drawn) [Example 729] | 222 to 226 | 200 to 1000 | 200 to 1000 | –
24 | NC(=O)c1ccc(Oc2ccc3c(c2)CCC2(CCN(C4CCC4)CC2)O3)nc1 [Example 390] | 191 to 193 | – | – | Ki (human H3 receptor; [2]): < 200 nM; Ki [1, 3]: < 200 nM

Row | SMILES | melting point [°C] | Ki (human H3 receptor; [4]) [nM] | Ki [1, 5] [nM] | also measured
25 | c1ccc(Nc2ccc3c(c2)OC2(CCN(C4CCC4)CC2)O3)cc1 [Example 170] | 238 to 240 | – | – | Ki (human H3 receptor; [8]): < 200 nM; Ki [1, 9]: < 200 nM
26 | N#Cc1ccccc1Nc1ccc2c(c1)COC1(CCN(C3CCC3)CC1)O2 [Example 125] | 54 to 58 | – | – | Ki (human H3 receptor; [6]): < 200 nM; Ki [1, 7]: < 200 nM
27 | CCS(=O)(=O)c1c[nH]c(=O)cc1-c1ccc2c(c1)COC1(CCN(C3CCC3)CC1)O2 [Example 793] | 190 to 192 | < 200 | < 200 | –
28 | CN(C)S(=O)(=O)c1ccc(-c2ccc3c(c2)COC2(CCN(C4CCC4)CC2)O3)cc1Cl [Example 621] | 97 to 99 | < 200 | < 200 | –
29 | O=C(c1ccc(-c2ccc3c(c2)COC2(CCN(C4CCC4)CC2)O3)cc1F)N1CCC(O)CC1 [Example 222] | 105.2 to 106.9 | – | – | Ki (human H3 receptor; [8]): < 200 nM; Ki [1, 9]: < 200 nM
30 | CS(=O)(=O)c1ccc(-c2ccc3c(c2)CC2(CCN(C4CCC4)CC2)O3)cc1 [Example 135, 1′-Cyclobutyl-spirobenzofuran-2(3H)-4′-piperidine-(5-(4-methylsulfonylphenyl))] | > 25 | – | – | Ki (human H3 receptor; [6]): < 200 nM; Ki [1, 7]: < 200 nM
31 | COc1ccc(-c2ccc3c(c2)COC2(CCN(C4CCC4)CC2)O3)nc1 [Example 650] | 123 to 126 | < 200 | < 200 | –
32 | Cc1c(-c2ccc3c(c2)COC2(CCN(C4CCC4)CC2)O3)cn(CC(F)(F)F)c(=O)c1C [Example 783] | 96 to 98 | < 200 | < 200 | –
33 | CNC(=O)c1ccc(-c2ccc3c(c2)CCC2(CCN(C4CCC4)CC2)O3)cc1Cl [Example 232] | 144.2 | – | – | Ki (human H3 receptor; [8]): < 200 nM; Ki [1, 9]: < 200 nM
34 | CCOC(=O)C1CCN(c2ccc3c(c2)CCC2(CCN(C4CCC4)CC2)O3)CC1 [Example 384] | 256 to 258 | – | – | Ki (human H3 receptor; [2]): < 200 nM; Ki [1, 3]: < 200 nM
35 | NC(=O)c1cccc(-c2ccc3c(c2)COC2(CCN(C4CCC4)CC2)O3)c1 [Example 58] | 109.3 | – | – | Ki (human H3 receptor; [6]): < 200 nM; Ki [1, 7]: < 200 nM
36 | CC(C)OCCNC(=O)c1ccc(-c2ccc3c(c2)COC2(CCN(C4CCC4)CC2)O3)cc1 [Example 311] | 155.5 to 157.3 | – | – | Ki (human H3 receptor; [8]): < 200 nM; Ki [1, 9]: < 200 nM
37 | O=C(N[C@H]1CCOC1)c1ccc(-c2ccc3c(c2)CCC2(CCN(C4CCC4)CC2)O3)cc1 [Example 580] | 196 to 198 | < 200 | < 200 | –
38 | CNC(=O)c1ccc(-c2ccc3c(c2)COC2(CCN(C4CCC4)CC2)O3)cc1O [Example 704] | 252 to 254 | < 200 | < 200 | –
39 | Cc1cc(=O)n(C(C)C)cc1-c1ccc2c(c1)COC1(CCN(C3CCC3)CC1)O2 [Example 759] | 65 to 68 | < 200 | < 200 | –
40 | CNC(=O)c1ccc(-c2ccc3c(c2)COC2(CCN(C4CCC4)CC2)O3)c(Cl)c1 [Example 685] | 211 to 213 | < 200 | < 200 | –
41 | O=c1cccc(-c2ccc3c(c2)COC2(CCN(C4CCC4)CC2)O3)[nH]1 [Example 476] | 207 to 209 | – | – | Ki (human H3 receptor; read-out: Human H3 Ki): < 200 nM; Ki ([1]; read-out: Rat H3 kI): < 200 nM
42 | O=c1ccc(Cc2ccc3c(c2)COC2(CCN(C4CCC4)CC2)O3)c[nH]1 [Example 527] | 194 to 196 | – | – | Ki (human H3 receptor; read-out: Human H3 Ki): < 200 nM; Ki ([1]; read-out: Rat H3 kI): < 200 nM
43 | COCCN(C)C(=O)c1ccc(-c2ccc3c(c2)COC2(CCN(C4CCC4)CC2)O3)cc1 [Example 306] | 232 to 234 | – | – | Ki (human H3 receptor; [8]): < 200 nM; Ki [1, 9]: < 200 nM
44 | O=S1(=O)CCC(c2ccc3c(c2)COC2(CCN(C4CCC4)CC2)O3)CC1 [Example 489] | 210 to 211 | – | – | Ki (human H3 receptor; read-out: Human H3 Ki): < 200 nM; Ki ([1]; read-out: Rat H3 kI): < 200 nM
45 | COc1cc(-c2ccc3c(c2)COC2(CCN(C4CCC4)CC2)O3)ccc1C(N)=O [Example 742] | 212 to 214 | < 200 | < 200 | –
46 | CCN(C)C(=O)c1ccc(-c2ccc3c(c2)COC2(CCN(C4CCC4)CC2)O3)cc1 [Example 30] | 140 to 141 | – | – | Ki (human H3 receptor; [6]): < 200 nM; Ki [1, 7]: < 200 nM
47 | O=c1[nH]ccc(-c2ccc3c(c2)COC2(CCN(C4CCC4)CC2)O3)c1Cl [Example 666] | 230 to 232 | < 200 | < 200 | –
48 | O=C(Nc1ccc2c(c1)COC1(CCN(C3CCC3)CC1)O2)c1cc[nH]c(=O)c1 [Example 278] | 260 to 262 | – | – | Ki (human H3 receptor; [8]): < 200 nM; Ki [1, 9]: < 200 nM
